Data published in patent US4473587A, “Prostaglandin E1 analogues” (Ono Pharmaceutical Co., Ltd., priority 1982, dated 1984).
Read-outs that look alike come from different tables or passages of the source.

Tests used:
mice = assay: acute toxicity in mice by oral administration; type: in vivo, mouse; details: 10 mg/kg animal body weight, 5 cases
Source text: Therefore, the compounds of the present invention may be considered to be sufficiently safe and suitable for medical use.

blood pressure = assay: hypotensive effect in the allobarbital anesthetized dog; type: in vivo; details: for hypotensive side-effect: in words, in comparison with known compounds D, E, F and G; for Hypotensive effect (E1 = 1): relative to PGE1 taken as 1.00, allobarbital anesthetised dog; for Hypotensive effect (E1 = 1) / duration of fall in blood pressure / fall in blood pressure: i.v.; for duration of fall in blood pressure / fall in blood pressure: allobarbital anesthetized dog
Protocol: (ii) by intravenous administration to the allobarbital anesthetized dog, compound B produced falls in blood pressure of 13 and 31 mmHg lasting 17 and 37 minutes at the doses of 1 and 2 μg/kg animal body weight, respectively.
(§1) In the Table, the values of side-effects are indicated relative to the activity of PGE1, taken as 1.00.
^(2) By intravenous administration to the allobarbital anesthetised

[1] = system: adenosine diphosphate-induced blood platelet aggregation; assay: inhibition of adenosine diphosphate-induced blood platelet aggregation in platelet rich plasma of rats; type: cell-based, rat; details: for platelet aggregation inhibiting side-effect: in words, in comparison with known compounds D, E, F and G; for Platelet aggregation inhibition (E1 = 1): relative to PGE1 taken as 1.00, ADP-induced, platelet rich plasma of rats
Source text: as §1
^(3) Inhibition of adenosine diphosphateinduced blood platelet
aggregation in plateletrich plasma of rats.

uterine contraction = uterine contraction in the pregnant female rat; type: in vivo; details: 20th day of gestation, i.v., doses of 50 and 20 μg/kg (compound A and compound B)
[2] = system: D(+)-galactosamine-induced liver damage; assay: D(+)-galactosamine-induced liver damage in rats; type: in vivo; details: D(+)-galactosamine 375 mg/kg i.p. twice, rat, 100 μg/kg oral five times, blood at 48 hrs, vs control
[3] = system: carbon tetrachloride-induced liver damage; assay: carbon tetrachloride-induced liver damage in rats (plasma GOT, GPT); type: in vivo, rat; details: for cytoprotective activity compared with known compound H / cytoprotective activity: in words; for cytoprotective activity compared with known compound H: comparison with compound H; for cytoprotective activity: from the Table; for inhibition in vivo at 0.02 mg/kg / inhibition in vivo at 0.1 mg/kg / inhibition in vivo at 0.05 mg/kg / inhibition in vivo at 0.2 mg/kg: po, CCl4, rat, vs controls; for inhibition in vivo at 0.02 mg/kg: 20 μg/kg p.o.; for inhibition in vivo at 0.1 mg/kg: 100 μg/kg p.o.; for inhibition in vivo at 0.05 mg/kg: 50 μg/kg p.o.; for inhibition in vivo at 0.2 mg/kg: 200 μg/kg p.o.
Source text: In the following Table, the pharmacological activities, i.e. carbon tetrachloride-induced cytodamage inhibition as an example of cytoprotective activity, and hypotensive and platelet aggregation inhibition activities as examples of side-effects, of known compounds are compared with those of compounds A, B and C of the invention.
^(1) The method used was that described in the specification of U.S.

[4] = system: α-naphthylisothiocyanate-induced liver damage; assay: α-naphthylisothiocyanate-induced liver damage in rats; type: in vivo; details: rat, 100 μg/kg oral, vs controls
[5] = read-out: inhibition of plasma GOT (glutamic oxaloacetic transaminase)
[6] = read-out: inhibition of plasma GPT (glutamic pyruvic transaminase)

Row | Structure (SMILES) | deaths in acute toxicity test (mice) | hypotensive side-effect (blood pressure) | Hypotensive effect (E1 = 1) (blood pressure) | platelet aggregation inhibiting side-effect [1] | Platelet aggregation inhibition (E1 = 1) [1] | cytoprotective activity compared with known compound H [3] | cytoprotective activity [3] | inhibition in vivo at 0.1 mg/kg [3, 5] | other results
1 | CCCCC1CC[C@H]([C@H](O)/C=C/[C@H]2[C@H](O)CC(=O)[C@@H]2CC(=O)CCCCCO)C1 (stereo partly drawn) [A, 2-decarboxy-2-hydroxymethyl-6-oxo-15-(3(RS)-butyl-1(S)-cyclopentyl)-16,17,18,19,20-pentanor-PGE1] | no deaths in 5 cases | very weak side-effects | 1.2 | very weak side-effects | 0.05 | superior in their cytoprotective activity to the known compound H | possess cytoprotective activity | 71.8% | stimulation of uterine contraction (uterine contraction): stimulated uterine contraction; inhibition of plasma GOT [2]: 20.4%; inhibition of plasma GPT [2]: 45.1%; inhibition of plasma bilirubin [2]: 36.2%; inhibition in vivo at 0.02 mg/kg [3, 5]: 56.6%; inhibition in vivo at 0.02 mg/kg [3, 6]: 58.8%; inhibition in vivo at 0.1 mg/kg [3, 6]: 53.6%
2 | CCCC1CC[C@H]([C@H](O)/C=C/[C@H]2[C@H](O)CC(=O)[C@@H]2CC(=O)CCCCCO)C1 (stereo partly drawn) [B, 2-decarboxy-2-hydroxymethyl-6-oxo-15-(3(RS)-propyl-1(S)-cyclopentyl)-16,17,18,19,20-pentanor-PGE1] | two deaths in 5 cases | very weak side-effects | 0.35 | very weak side-effects | 0.05 | superior in their cytoprotective activity to the known compound H | possess cytoprotective activity | – | duration of fall in blood pressure (blood pressure; 1 μg/kg): 17 min; fall in blood pressure (blood pressure; 1 μg/kg): 13 mmHg; duration of fall in blood pressure (blood pressure; 2 μg/kg): 37 min; fall in blood pressure (blood pressure; 2 μg/kg): 31 mmHg; stimulation of uterine contraction (uterine contraction): stimulated uterine contraction; inhibition of plasma GOT [2]: 40.0%; inhibition of plasma GPT [2]: 50.3%; inhibition of plasma bilirubin [2]: 44.2%; inhibition in vivo at 0.05 mg/kg [3, 5]: 29.6%; inhibition in vivo at 0.05 mg/kg [3, 6]: 21.5%; inhibition of plasma GOT [4]: 52.6%; inhibition of plasma GPT [4]: 62.5%; inhibition of plasma bilirubin [4]: 30.3%
3 | O=C(CCCCCO)C[C@H]1C(=O)C[C@@H](O)[C@@H]1/C=C/[C@@H](O)C1CCCC1 [C, 2-decarboxy-2-hydroxymethyl-6-oxo-15-cyclopentyl-16,17,18,19,20-pentanor-PGE1] | no deaths in 5 cases | very weak side-effects | 0.77 | very weak side-effects | – | superior in their cytoprotective activity to the known compound H | possess cytoprotective activity | – | inhibition in vivo at 0.2 mg/kg [3, 5]: 7.9%; inhibition in vivo at 0.2 mg/kg [3, 6]: 29.9%
4 | CCCC1CCC([C@H](O)/C=C/[C@H]2[C@H](O)CC(=O)[C@@H]2CC(=O)CCCCC(=O)O)C1 (stereo partly shown) [D, 6Oxo-15-(3RS-propyl-1RS-cyclopentyl)-16,17,18,19,20-pentanor-PGE1, reference compound] | – | – | 13 | – | 48.4 | – | possess cytoprotective activity | – | –
5 | CCCC1CCC([C@H](O)/C=C/[C@H]2[C@H](O)CC(=O)[C@@H]2CC(=O)CCCCC(=O)OC)C1 (stereo partly shown) [E, 6Oxo-15-(3RS-propyl-1RS-cyclopentyl)-16,17,18,19,20-pentanor-PGE1 methyl ester, reference compound] | – | – | 25.7 | – | 58.6 | – | possess cytoprotective activity | 77% | –
6 | CCCCC1CCC([C@H](O)/C=C/[C@H]2[C@H](O)CC(=O)[C@@H]2CC(=O)CCCCC(=O)OC)C1 (stereo partly shown) [F, 6Oxo-15-(3RS-butyl-1RS-cyclopentyl)-16,17,18,19,20-pentanor-PGE1 methyl ester, reference compound] | – | – | 12.6 | – | 51.0 | – | possess cytoprotective activity | – | –
7 | CCCC1CCC([C@H](O)/C=C/[C@H]2[C@H](O)CC(=O)[C@@H]2CC(=O)CCCCC(=O)OC)CC1 (stereo partly shown) [G, 6Oxo-15-(4RS-propyl-1RS-cyclohexyl)-16,17,18,19,20-pentanor-PGE1 methyl ester, reference compound] | – | – | 6.2 | – | 19.7 | – | possess cytoprotective activity | – | –
8 | CCCCC[C@H](O)/C=C/[C@H]1[C@H](O)CC(=O)[C@@H]1CC(=O)CCCCCO [H, 2Decarboxy-2-hydroxymethyl-6-oxo-PGE1, reference compound] | – | – | – | – | – | – | – | 3.4% | inhibition in vivo at 0.1 mg/kg [3, 6]: -0.07%
